Legend:
[1] = target: T1, Human immunodeficiency virus type 1 integrase (Human immunodeficiency virus 1, UniProt Q7ZJM1)
Description: Inhibition of HIV-1 integrase catalytic activity

CCRF-CEM [2] = experiment: Cytotoxic concentration against uninfected CEM cells; format: functional; settings: Homo sapiens
CCRF-CEM [3] = experiment: Maximum protection of CEM cells by the compound against HIV-1 at a dose of 20 uM; format: functional, Homo sapiens
[4] = Therapeutic index expressed as the ratio of CC50 and EC50; format: cell-based; settings: human, CCRF-CEM cells; read-out: Therapeutic index
CCRF-CEM [5] = experiment: Anti HIV-1 activity expressed as the concentration required to protect of HIV-1 infected CEM cells; format: functional, cell-based; settings: Homo sapiens
[6] = target: T1, Human immunodeficiency virus type 1 integrase; remark: listed apart in the source
CCRF-CEM [7] = experiment: Maximum protection of CEM cells by the compound against HIV-1; No protection; format: functional, cell-based; settings: Homo sapiens
[8] = Therapeutic index expressed as the ratio of CC50 and EC50; No therapeutic benifit reached; format: cell-based; settings: human, ccrf-cem
CCRF-CEM [9] = experiment: Maximum protection of CEM cells by the compound against HIV-1 at a dose of 63 uM; format: functional, Homo sapiens
[10] = target: T1, Human immunodeficiency virus type 1 integrase; experiment: Evaluated for inhibition of HIV-1 integrase catalytic activity in terms of inhibition of 3'-processing; format: functional
CCRF-CEM [11] = experiment: Maximum protection of CEM cells by the compound against HIV-1 at a dose of 2 uM; format: functional, Homo sapiens
CCRF-CEM [12] = experiment: Maximum protection of CEM cells by the compound against HIV-1 at a dose of 2 uM; No protection; format: functional, cell-based; settings: Homo sapiens
CCRF-CEM [13] = experiment: Maximum protection of CEM cells by the compound against HIV-1 at a dose of 0.2 uM; format: functional, Homo sapiens

T1 sequence (Q7ZJM1 whole entry): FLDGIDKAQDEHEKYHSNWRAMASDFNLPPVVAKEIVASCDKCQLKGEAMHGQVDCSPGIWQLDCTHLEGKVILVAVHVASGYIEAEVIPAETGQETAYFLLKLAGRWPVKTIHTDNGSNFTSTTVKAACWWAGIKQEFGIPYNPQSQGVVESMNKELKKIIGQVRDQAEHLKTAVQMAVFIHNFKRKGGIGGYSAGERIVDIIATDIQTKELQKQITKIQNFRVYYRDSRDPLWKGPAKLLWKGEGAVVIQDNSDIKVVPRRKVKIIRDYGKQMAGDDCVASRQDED

Structure (SMILES) | IC50 [1] [µM] | CC50 (CCRF-CEM [2]) [µM] | Max protection (CCRF-CEM [3]) [%] | selectivity ratio [4] | EC50 (CCRF-CEM [5]) [µM] | IC50 [6] [µM] | Max protection (CCRF-CEM [7]) | Therapeutic index [8] | Max protection (CCRF-CEM [9]) [%] | IC50 [10] [µM] | Max protection (CCRF-CEM [11]) [%] | Max protection (CCRF-CEM [12]) | Max protection (CCRF-CEM [13]) [%]
O=C(/C=C(\O)c1cccc(Cc2ccccc2F)c1)C(=O)NCCCCCCNC(=O)C(=O)/C=C(\O)c1cccc(Cc2ccccc2F)c1 | 2.7 | 124 | 86 | 8 | 16 | 32 | – | – | – | – | – | – | –
O=C(O)C(=O)/C=C(\O)c1cccc(OCc2cccc(COc3cccc(/C(O)=C/C(=O)C(=O)O)c3)c2)c1 | – | > 200 | – | – | > 200 | 7.3 | No protection | – | – | – | – | – | –
O=C(O)C(=O)/C=C(\O)c1cccc(C(c2cccc(/C(O)=C/C(=O)C(=O)O)c2)c2ccccc2F)c1 (configuration not stated) | – | 81 | 88 | – | 17 | – | – | – | – | – | – | – | –
O=C(O)C(=O)/C=C(\O)c1cccc(OCc2ccc(COc3cccc(/C(O)=C/C(=O)C(=O)O)c3)cc2)c1 | 1.9 | > 200 | – | – | > 200 | 1.7 | No protection | No therapeutic benefit | – | – | – | – | –
O=C(O)C(=O)/C=C(\O)c1cccc(OCc2ccccc2COc2cccc(/C(O)=C/C(=O)C(=O)O)c2)c1 | – | > 200 | – | – | 39 | – | – | – | 97 | – | – | – | –
O=C(/C=C(\O)c1cccc(Cc2ccccc2F)c1)C(=O)N1CCN(C(=O)C(=O)/C=C(\O)c2cccc(Cc3ccccc3F)c2)CC1 | 0.3 | 11 | – | 14 | 0.8 | – | – | – | – | 2.5 | 100 | – | –
O=C(/C=C(\O)c1cccc(Cc2ccccc2F)c1)C(=O)NCCNC(=O)C(=O)/C=C(\O)c1cccc(Cc2ccccc2F)c1 | 0.2 | 5 | – | – | > 5 | 5.8 | – | No therapeutic benefit | – | – | – | No protection | –
O=C(O)C(=O)/C=C(\O)c1cccc(Cc2ccccc2F)c1 | 0.4 | 62 | – | 3110 | 0.02 | 2.5 | – | – | – | – | – | – | 98
O=C(/C=C(\O)c1cccc(Cc2ccccc2F)c1)C(=O)NCCCCCNC(=O)C(=O)/C=C(\O)c1cccc(Cc2ccccc2F)c1 | 0.7 | 12 | – | – | > 12 | 4.8 | No protection | No therapeutic benefit | – | – | – | – | –
O=C(/C=C(\O)c1cccc(Cc2ccccc2F)c1)C(=O)NCCCNC(=O)C(=O)/C=C(\O)c1cccc(Cc2ccccc2F)c1 | 0.2 | 9 | – | – | > 9 | 5.3 | No protection | No therapeutic benefit | – | – | – | – | –
